In article PMC10511319, “Bacterial pathogens deliver water- and solute-permeable channels to plant cells” (Nature, 2023):

Tests used:
[1] = target: T1, AvrE (Pseudomonas syringae group genomosp. 3, UniProt Q887C9); experiment: two-electrode voltage clamp, Xenopus oocytes; format: cell-based; details: current at 50 mV test pulse; ND96 saline, pH 7.5; channel block
T1 construct: full-length untagged ORF in pGH19, cRNA-injected Xenopus laevis oocytes

[2] = target: T2, DspE (MBP–DspE) (Erwinia amylovora, UniProt O54581); experiment: liposome carboxyfluorescein release; format: biochemical; details: soybean liposomes; 0.05–0.15 µM DspE; 20 mM HEPES, 300 mM NaCl, pH 8.0; channel block
T2 construct: full-length DspE fused to MBP-His8-PPX-Flag; made in E. coli BL21(DE3)

[3] = target: T3, DspE (Erwinia amylovora, UniProt O54581); format: cell-based; details: current at 50 mV test pulse; ND96 saline, pH 7.5; channel block
T3 construct: full-length untagged ORF in pGH19, cRNA-injected Xenopus laevis oocytes; strain of oocyte clone not restated

[4] = target: T1, AvrE; experiment: oocyte fluorescent dye uptake; format: cell-based; details: 5 µg/ml fluorescein in ND96 saline; 20 ng avrE cRNA; permeation through channel

T3 sequence (O54581 whole entry): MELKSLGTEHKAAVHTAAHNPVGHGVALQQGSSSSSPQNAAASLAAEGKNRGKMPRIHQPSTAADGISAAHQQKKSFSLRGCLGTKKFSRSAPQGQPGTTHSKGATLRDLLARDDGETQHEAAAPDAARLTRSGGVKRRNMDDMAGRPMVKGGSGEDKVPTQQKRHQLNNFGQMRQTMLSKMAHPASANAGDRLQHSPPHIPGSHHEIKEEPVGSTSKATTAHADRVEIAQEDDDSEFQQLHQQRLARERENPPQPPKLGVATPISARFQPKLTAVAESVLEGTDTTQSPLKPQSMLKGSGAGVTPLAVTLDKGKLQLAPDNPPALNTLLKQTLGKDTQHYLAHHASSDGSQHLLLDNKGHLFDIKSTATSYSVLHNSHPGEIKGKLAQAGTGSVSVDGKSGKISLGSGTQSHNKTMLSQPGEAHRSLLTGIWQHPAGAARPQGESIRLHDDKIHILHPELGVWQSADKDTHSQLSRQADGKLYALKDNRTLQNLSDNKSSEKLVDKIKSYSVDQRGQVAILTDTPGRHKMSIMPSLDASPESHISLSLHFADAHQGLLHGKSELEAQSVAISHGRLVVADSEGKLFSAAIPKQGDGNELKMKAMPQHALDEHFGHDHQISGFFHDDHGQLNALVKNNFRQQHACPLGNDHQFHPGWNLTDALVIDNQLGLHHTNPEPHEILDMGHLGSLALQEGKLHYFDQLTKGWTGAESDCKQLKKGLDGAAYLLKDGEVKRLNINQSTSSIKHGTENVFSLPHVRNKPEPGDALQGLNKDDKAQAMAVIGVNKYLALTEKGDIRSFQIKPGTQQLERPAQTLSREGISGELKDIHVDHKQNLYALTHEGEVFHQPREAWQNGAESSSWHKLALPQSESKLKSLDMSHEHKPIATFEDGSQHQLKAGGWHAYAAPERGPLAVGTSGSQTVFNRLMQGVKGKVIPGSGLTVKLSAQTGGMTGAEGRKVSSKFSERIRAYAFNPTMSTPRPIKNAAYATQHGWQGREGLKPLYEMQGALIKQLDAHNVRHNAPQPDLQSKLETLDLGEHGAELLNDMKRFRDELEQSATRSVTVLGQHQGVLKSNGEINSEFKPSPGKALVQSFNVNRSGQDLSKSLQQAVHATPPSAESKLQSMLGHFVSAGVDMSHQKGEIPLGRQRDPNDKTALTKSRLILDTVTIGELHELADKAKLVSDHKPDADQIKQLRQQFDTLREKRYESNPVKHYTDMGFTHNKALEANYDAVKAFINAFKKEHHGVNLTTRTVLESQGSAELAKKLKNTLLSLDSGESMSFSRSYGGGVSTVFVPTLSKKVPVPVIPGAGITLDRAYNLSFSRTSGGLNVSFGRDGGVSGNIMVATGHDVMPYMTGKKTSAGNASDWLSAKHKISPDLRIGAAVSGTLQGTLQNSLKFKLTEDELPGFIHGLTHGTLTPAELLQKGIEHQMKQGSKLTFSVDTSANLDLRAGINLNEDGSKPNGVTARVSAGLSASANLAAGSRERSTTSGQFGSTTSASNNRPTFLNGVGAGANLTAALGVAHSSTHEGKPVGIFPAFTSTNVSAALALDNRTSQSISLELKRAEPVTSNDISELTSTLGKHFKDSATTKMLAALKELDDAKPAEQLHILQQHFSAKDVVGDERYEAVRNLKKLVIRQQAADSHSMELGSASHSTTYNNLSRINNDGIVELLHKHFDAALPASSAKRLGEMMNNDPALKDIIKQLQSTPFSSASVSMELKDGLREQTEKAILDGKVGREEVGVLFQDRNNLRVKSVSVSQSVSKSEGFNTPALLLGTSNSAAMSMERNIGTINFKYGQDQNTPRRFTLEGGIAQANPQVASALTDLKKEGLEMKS
T1 sequence (Q887C9 whole entry): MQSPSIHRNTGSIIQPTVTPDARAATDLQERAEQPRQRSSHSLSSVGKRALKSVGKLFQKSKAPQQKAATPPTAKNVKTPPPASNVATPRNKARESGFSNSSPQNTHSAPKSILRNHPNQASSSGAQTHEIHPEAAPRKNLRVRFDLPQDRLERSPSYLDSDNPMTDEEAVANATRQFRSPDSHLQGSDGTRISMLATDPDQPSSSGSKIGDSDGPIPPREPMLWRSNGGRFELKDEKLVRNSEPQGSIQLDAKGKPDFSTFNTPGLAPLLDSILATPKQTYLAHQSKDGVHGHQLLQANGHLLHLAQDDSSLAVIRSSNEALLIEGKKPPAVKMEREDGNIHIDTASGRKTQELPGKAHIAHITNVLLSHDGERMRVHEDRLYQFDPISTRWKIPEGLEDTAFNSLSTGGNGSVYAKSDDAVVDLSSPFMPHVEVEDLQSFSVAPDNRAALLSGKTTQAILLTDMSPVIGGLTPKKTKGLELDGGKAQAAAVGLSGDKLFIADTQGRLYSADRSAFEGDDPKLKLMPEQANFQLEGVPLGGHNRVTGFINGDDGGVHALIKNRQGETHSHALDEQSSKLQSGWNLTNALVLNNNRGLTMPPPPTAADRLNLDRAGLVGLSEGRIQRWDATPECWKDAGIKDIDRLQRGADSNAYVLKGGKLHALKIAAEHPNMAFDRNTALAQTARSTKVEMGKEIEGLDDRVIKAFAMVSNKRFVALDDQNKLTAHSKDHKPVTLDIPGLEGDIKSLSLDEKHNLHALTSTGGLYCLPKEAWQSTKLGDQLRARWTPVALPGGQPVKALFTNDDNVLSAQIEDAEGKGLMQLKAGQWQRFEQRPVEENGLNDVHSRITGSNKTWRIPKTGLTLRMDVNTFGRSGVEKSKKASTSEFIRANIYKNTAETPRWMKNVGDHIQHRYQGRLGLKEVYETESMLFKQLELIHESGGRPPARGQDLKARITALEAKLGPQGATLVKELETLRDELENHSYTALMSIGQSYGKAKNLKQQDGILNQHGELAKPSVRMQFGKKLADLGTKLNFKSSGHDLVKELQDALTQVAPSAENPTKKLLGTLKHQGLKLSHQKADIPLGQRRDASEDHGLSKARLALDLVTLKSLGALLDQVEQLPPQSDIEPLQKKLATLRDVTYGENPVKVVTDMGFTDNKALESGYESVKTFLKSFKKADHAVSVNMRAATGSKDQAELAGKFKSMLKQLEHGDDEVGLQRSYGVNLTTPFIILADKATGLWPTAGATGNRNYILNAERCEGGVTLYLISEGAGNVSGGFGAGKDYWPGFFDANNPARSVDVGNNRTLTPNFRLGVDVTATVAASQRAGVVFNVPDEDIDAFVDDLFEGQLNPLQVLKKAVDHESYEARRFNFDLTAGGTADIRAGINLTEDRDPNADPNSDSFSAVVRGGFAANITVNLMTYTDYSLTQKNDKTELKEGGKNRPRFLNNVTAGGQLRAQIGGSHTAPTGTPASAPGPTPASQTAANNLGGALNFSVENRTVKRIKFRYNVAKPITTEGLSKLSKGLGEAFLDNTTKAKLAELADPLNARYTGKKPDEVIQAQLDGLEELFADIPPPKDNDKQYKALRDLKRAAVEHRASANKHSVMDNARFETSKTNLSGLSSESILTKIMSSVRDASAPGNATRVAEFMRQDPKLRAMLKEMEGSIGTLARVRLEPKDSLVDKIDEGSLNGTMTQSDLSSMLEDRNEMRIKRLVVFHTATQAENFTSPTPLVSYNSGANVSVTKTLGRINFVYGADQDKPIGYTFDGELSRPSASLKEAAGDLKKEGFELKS

Compound	% inhibition at 10 mM [1] [%]	IC50 [2] [µM]	% inhibition at 10 mM [3] [%]	oocyte fluorescent dye uptake [4]
PAMAM G1	93	31	71	–
O=C1OC2(c3ccc(O)cc3Oc3cc(O)ccc32)c2ccccc21 [fluorescein]	–	–	–	fluorescein entered oocytes expressing DspE or AvrE, whereas eGFP could not
PAMAM G0	–	–	68	–
